Data reported in ChEMBL document CHEMBL3774331, “Inhibition of tau aggregation using a naturally-occurring cyclic peptide scaffold” (Eur J Med Chem, 2016).
Active and inactive are the calls of the source. The rule behind the calls is not given here. Where a SMILES comes first, the peptide text is derived from it. Bridges are numbered along the chain shown (N, C = ends).

Legend:
[1] = Inhibition of TAU derived synthetic hexapeptide AcPHF6 fibril formation at compound:AcPHF6 ratio of 1:1 to 1:64 incubated for 60 mins by thioflavin S fluorescence assay
Serum = assay: Stability in 100% human serum at 30 uM after 24 hrs; format: ADME
[2] = Binding affinity to thioflavin S at compound:AcPHF6 ratio of 1:1 incubated for 120 mins by fluorescence assay
[3] = Inhibition of TAU derived synthetic hexapeptide AcPHF6 fibril formation incubated for 60 mins by thioflavin T fluorescence assay
[4] = Inhibition of TAU derived synthetic hexapeptide AcPHF6 fibril formation incubated for 120 mins by thioflavin S fluorescence assay
[5] = Binding affinity to thioflavin S at compound:AcPHF6 ratio of 1:1 to 1:64 incubated for 120 mins by fluorescence assay
[6] = Activation of TAU derived synthetic hexapeptide AcPHF6 fibril formation at compound:AcPHF6 ratio of 1:1 to 1:64 incubated for 60 mins by thioflavin S fluorescence assay

Row | inhibition [1] | Stability (Serum) | Activity [5] | Structure (SMILES) | further results
1 | Active | Stable |  | CC[C@H](C)[C@@H]1NC(=O)[C@H](CCC(N)=O)NC(=O)[C@H](C(C)C)NC(=O)CNC(=O)[C@H](CC(=O)O)NC(=O)[C@@H]2CCCN2C(=O)[C@H](C(C)C)NC(=O)[C@H](CCCCN)NC(=O)[C@H]([C@@H](C)CC)NC(=O)[C@@H]2CSSC[C@H](NC1=O)C(=O)N[C@@H](Cc1ccc(O)cc1)C(=O)N[C@@H](CCCCN)C(=O)N[C@@H](CO)C(=O)N[C@@H]([C@@H](C)CC)C(=O)N1CCC[C@H]1C(=O)N1CCC[C@H]1C(=O)NCC(=O)N2 (cyclo(CIKVPDGVQICYKSIPPG); disulfide 1-11) | 
2 | Active |  |  | CC[C@H](C)[C@@H]1NC(=O)[C@H](CCC(N)=O)NC(=O)[C@H](C(C)C)NC(=O)CNC(=O)[C@H](CC(=O)O)NC(=O)[C@@H]2CCCN2C(=O)[C@H](C(C)C)NC(=O)[C@H](C)NC(=O)[C@H](Cc2ccccc2)NC(=O)[C@@H]2CSSC[C@H](NC1=O)C(=O)N[C@@H](Cc1ccc(O)cc1)C(=O)N[C@@H](CCCCN)C(=O)N[C@@H](CO)C(=O)N[C@@H]([C@@H](C)CC)C(=O)N1CCC[C@H]1C(=O)N1CCC[C@H]1C(=O)N[C@@H]([C@@H](C)CC)C(=O)N2 (cyclo(AVPDGVQICYKSIPPICF); disulfide 9-17) | Activity [2]: Active
3 |  |  |  | CC[C@H](C)[C@@H]1NC(=O)[C@H](CCC(N)=O)NC(=O)[C@H](C(C)C)NC(=O)CNC(=O)[C@H]2CCCN2C(=O)[C@H](C(C)C)NC(=O)[C@H](C)N(C)C(=O)[C@H]([C@@H](C)CC)NC(=O)[C@@H]2CSSC[C@H](NC1=O)C(=O)N[C@@H](Cc1ccc(O)cc1)C(=O)N[C@@H](CCCCN)C(=O)N[C@@H](CO)C(=O)N[C@@H]([C@@H](C)CC)C(=O)N1CCC[C@H]1C(=O)N1CCC[C@H]1C(=O)N[C@@H]([C@@H](C)CC)C(=O)N2 | inhibition [3]: Dose-dependent effect
4 | Active |  | inactive | CC[C@H](C)[C@@H]1NC(=O)[C@@H]2CCCN2C(=O)[C@@H]2CCCN2C(=O)[C@H]([C@@H](C)CC)NC(=O)[C@H](CO)NC(=O)[C@H](CCCCN)NC(=O)[C@H]([C@@H](C)O)NC(=O)[C@@H]2CSSC[C@H](NC1=O)C(=O)N[C@@H](Cc1ccccc1)C(=O)N1CCC[C@H]1C(=O)N[C@@H](CC(=O)O)C(=O)NCC(=O)N[C@@H](CCCNC(=N)N)C(=O)N2 | inhibition [4]: Dose-dependent effect
5 | Active | Stable |  | CC[C@H](C)[C@@H]1NC(=O)[C@H](C)NC(=O)CNC(=O)[C@@H]2CCCN2C(=O)[C@@H]2CCCN2C(=O)[C@H]([C@@H](C)CC)NC(=O)[C@H](CO)NC(=O)[C@H](CCCCN)NC(=O)[C@H](Cc2ccc(O)cc2)NC(=O)[C@H](C)NC(=O)[C@H]([C@@H](C)CC)NC(=O)[C@H](CCC(N)=O)NC(=O)[C@H](C(C)C)NC(=O)CNC(=O)[C@H](CC(=O)O)NC(=O)[C@@H]2CCCN2C(=O)[C@H](C(C)C)NC(=O)[C@H](CCCCN)NC1=O (cyclo(AIKVPDGVQIAYKSIPPG)) | 
6 |  |  | Active | CC(C)[C@H](NC(=O)CN)C(=O)N[C@H]1CSSC[C@@H](C(=O)N[C@@H](CCCNC(=N)N)C(=O)N[C@@H](CCCNC(=N)N)C(=O)O)NC(=O)[C@@H](C(C)C)NC(=O)C2CSSCC(NC(=O)[C@H](CCCNC(=N)N)NC1=O)C(=O)N[C@@H](C(C)C)C(=O)N[C@H]1CSSC[C@H](NC(=O)[C@H](C(C)C)NC(=O)CNC(=O)[C@H](CCCNC(=N)N)NC(=O)[C@H](CCCNC(=N)N)NC1=O)C(=O)N[C@@H](CCCNC(=N)N)C(=O)N2 | Activity [6]: Active
